According to BigSolDB 2.1:

Nc1cc([N+](=O)[O-])ccc1Cl
solubility (mole fraction)
Settings	273.15 K	278.15 K	283.15 K	288.15 K	293.15 K	298.15 K	303.15 K	308.15 K	313.15 K
in 1,4-dioxane	–	–	–	0.11	0.119	0.13	0.142	0.154	0.169
in 2-butanone	0.0877	0.0973	0.108	0.119	0.13	0.141	0.153	0.165	0.179
in NMP	0.155	0.161	0.166	0.173	0.179	0.186	0.193	0.201	0.209
in acetone	0.103	0.112	0.122	0.133	0.144	0.156	0.168	0.182	0.197
in acetonitrile	0.0222	0.0277	0.0342	0.0413	0.0495	0.0579	0.0671	0.077	0.0877
in ethanol	0.0097	0.0112	0.0129	0.0149	0.0173	0.0198	0.0227	0.0258	0.0297
in ethyl acetate	0.0765	0.0836	0.0915	0.0991	0.107	0.116	0.126	0.135	0.145
in isopropanol	0.0047	0.0059	0.0074	0.0091	0.0109	0.0132	0.0158	0.0188	0.0226
in methanol	0.0071	0.0085	0.01	0.0118	0.0141	0.0165	0.0193	0.0227	0.0263
in n-butanol	0.0055	0.0069	0.0086	0.0104	0.0128	0.0153	0.0182	0.0213	0.0252
in n-propanol	0.008	0.0094	0.011	0.0129	0.0152	0.0177	0.0209	0.0246	0.0283
in toluene	0.0118	0.0134	0.0153	0.0174	0.0199	0.0231	0.0268	0.0309	0.0352
